Measured values from PubChem BioAssay (NCI).
Several values for one entry are separate records, joined by “and”; a condition that tells them apart may be missing. Equal values may be shown once.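 Test compounds were applied to cells in 96-well plates for 48 hours at 5 doses. GI50 marks 50% less growth. TGI marks complete inhibition of growth.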 Where a SMILES comes first, the peptide text is derived from it. The star is where a group is joined. Boc = CC(C)(C)OC(=O)*; OBn = c1ccc(CO*)cc1

Columns and labels:
Assay in all cases: growth of human tumour cells (NCI), 48 h
[1] = system: SR leukemia
[2] = system: HOP-62 NSCLC
[3] = system: DU-145 prostate
[4] = system: SK-MEL-28 melanoma
[5] = system: MOLT-4 leukemia
[6] = system: CAKI-1 renal
[7] = system: SK-MEL-2 melanoma
[8] = system: SK-OV-3 ovarian

SMILES	TGI [1]	TGI [2]	TGI [3]	TGI [4]	TGI [5]	TGI [6]	TGI [7]	TGI [8]	GI50 [1]	GI50 [2]	GI50 [3]	GI50 [7]	GI50 [4]	GI50 [5]	GI50 [8]	GI50 [6]
COC(=O)c1c(C)cccc1C1CN=NC12Cc1ccc(C)c(C)c1C2=O (configuration not stated)	> 100 µM	> 100 µM	> 100 µM	> 100 µM	66.4 µM	> 100 µM	–	–	–	–	–	–	–	–	–	–
Cc1nc2n(c1/C=C1/C(=O)Nc3ccccc31)CCS2	–	> 100 µM	> 100 µM	> 100 µM	> 100 µM	> 100 µM	26.2 µM	> 100 µM	–	–	–	–	–	–	–	–
CC(=O)OC12c3ccccc3C(c3ccccc31)C1C(=O)N(c3ccccn3)C(=O)C12 (configuration not stated)	–	> 100 µM	> 100 µM	> 100 µM	> 100 µM	> 100 µM	–	> 100 µM	–	–	–	–	–	–	–	–
Cc1ccc(NC2=NCCO2)c2c1CCC2	53.3 µM	> 100 µM	> 100 µM	> 100 µM	> 100 µM	> 100 µM	48.9 µM	> 100 µM	–	–	–	–	–	–	–	–
CS[C@]12[C@@H]3C(=O)N(C)C(=O)[C@@H]3[C@](C)(C(=O)N1C)C(=O)N2c1ccccc1	–	> 100 µM	> 100 µM	> 100 µM	> 100 µM	> 100 µM	> 100 µM	> 100 µM	–	–	–	–	–	–	–	–
CCCCCCCCCC(=O)N[C@@H](c1ccco1)[C@@H](O)C(=O)O[C@H]1C[C@@]2(O)[C@@H](OC(=O)c3ccccc3)[C@@H]3[C@]4(OC(C)=O)CO[C@@H]4C[C@H](O)[C@@]3(C)C(=O)[C@H](OC(C)=O)C(=C1C)C2(C)C	10 µM	1.68 µM	–	14.8 µM	2.3 µM	> 38.9 µM	–	> 18.7 µM	–	–	–	–	–	–	–	–
C=C(C)C1CC/C(C)=C/CC[C@]2(C)O[C@@H]2CCC2=CC1OC2=O (some centres not stated)	51.5 µM	> 100 µM	> 100 µM	> 100 µM	30.6 µM	49.1 µM	> 100 µM	> 100 µM	19 µM	> 100 µM	18.4 µM	57.5 µM	> 100 µM	12.1 µM	> 100 µM	19 µM
Nc1nccc(NCC2(CO)CCC2)n1	> 100 µM	> 100 µM	> 100 µM	> 100 µM	> 100 µM	> 100 µM	> 100 µM	–	–	–	–	–	–	–	–	–
CCOc1ccc(N=NC2C(=O)N(C(=O)CC(=O)Nc3ccccc3)N=C2C)cc1 (configuration not stated)	> 100 µM	> 100 µM	> 100 µM	> 100 µM	> 100 µM	> 100 µM	> 100 µM	–	–	–	–	–	–	–	–	–
CC(C)CC(NC(=O)OC(C)(C)C)C(=O)NC(CC(=O)OCc1ccccc1)C(=O)OCc1ccccc1 (stereo not drawn) (Boc-Leu-Asp(OBn)-OBn; configuration not given here)	63.8 µM	> 100 µM	> 100 µM	–	76.9 µM	> 100 µM	> 100 µM	> 100 µM	–	–	–	–	–	–	–	–
C=C1[C@@](C)([C@@H]2CCCS2)[C@H]2C(C)=C[C@]1(C)n1c(=O)n(-c3ccccc3)c(=O)n12	–	> 100 µM	> 100 µM	> 100 µM	> 100 µM	> 100 µM	> 100 µM	> 100 µM	–	–	–	–	–	–	–	–
O=C1CC(C(OCc2ccccc2)C(OCc2ccccc2)C(COCc2ccccc2)OCc2ccccc2)CC(=O)N1 (configuration not stated)	> 100 µM	–	> 100 µM	> 100 µM	> 100 µM	–	–	–	–	–	–	–	–	> 100 µM and 37.7 µM	–	–
CN(C)c1ccc(/C=C/C(=O)N[C@@H]2C(=O)N3[C@@H]2SC(C)(C)[C@@H]3C(=O)O)cc1	> 100 µM	> 100 µM	> 100 µM	> 100 µM	> 100 µM	> 100 µM	> 100 µM	–	–	–	–	–	–	–	–	–
O=S(=O)(O)c1cccc2cccc(N=Nc3c(O)ccc4ccccc34)c12	> 100 µM	> 100 µM	> 100 µM	–	> 100 µM	> 100 µM	> 100 µM	> 100 µM	–	–	–	–	–	–	–	–
CC(=O)NC1=C(NCCCl)C(=O)c2ccccc2C1=O	> 100 µM	> 100 µM	> 100 µM	> 100 µM	75.5 µM	–	–	> 100 µM	–	–	–	–	–	–	–	–
CCOC(=O)NNC(=O)NCc1ccccc1CNC(=O)NNC(=O)OCC	> 100 µM	–	> 100 µM	> 100 µM	> 100 µM	> 100 µM	> 100 µM	> 100 µM	–	–	–	–	–	–	–	–
Cc1c(OCc2ccccc2)c(=O)ccn1CCc1c[nH]c2ccccc12	79.7 µM	> 100 µM	> 100 µM	–	31.9 µM	–	48.2 µM	> 100 µM	–	–	–	–	–	–	–	–
CS(=O)(=O)c1nc(-c2cc3c(c(S(C)(=O)=O)n2)CCC3)cc2c1CCCC2	–	78.6 µM	> 100 µM	> 100 µM	> 100 µM	38 µM	59.3 µM	77.7 µM	–	–	–	–	–	–	–	–
CC1(C)C(CCO)CC1n1ccc(=O)[nH]c1=O (configuration not stated)	–	> 100 µM	> 100 µM	> 100 µM	–	> 100 µM	> 100 µM	> 100 µM	–	–	–	–	–	–	–	–
COc1ccc(C2OCCN2C)cc1 (configuration not stated)	> 100 µM	> 100 µM	–	–	> 100 µM	> 100 µM	> 100 µM	> 100 µM	–	–	–	–	–	–	–	–
CCOC(=O)c1c(C)nc2c(c1-c1cn(-c3ccccc3)nc1-c1ccccc1)C(=O)c1ccccc1-2	–	> 100 µM	> 100 µM	> 100 µM	> 100 µM	> 100 µM	> 100 µM	> 100 µM	–	–	–	–	–	–	–	–
CN1N=C(c2ccncc2)OC1c1cccc(C(F)(F)F)c1 (configuration not stated)	–	> 100 µM	> 100 µM	> 100 µM	> 100 µM	–	> 100 µM	> 100 µM	–	–	–	–	–	–	–	–
COC(=O)C(=O)C(C(=O)C(=O)Nc1cccc([N+](=O)[O-])c1)c1nc2ccc(Cl)cc2[nH]c1=O (configuration not stated)	–	> 100 µM	> 100 µM	> 100 µM	> 100 µM	> 100 µM	> 100 µM	> 100 µM	–	–	–	–	–	–	–	–
CN(C(=O)c1ccc2c(c1)sc1c(=O)n(C)c3ccccc3c12)c1ccccc1	> 100 µM	–	> 100 µM	> 100 µM	> 100 µM	> 100 µM	> 100 µM	> 100 µM	–	–	–	–	–	–	–	–
COC(=O)C1=C(O)C(C(=O)OC)[C@]2(O)[C@@H](C(=O)OC)[C@H]1C[C@@H](c1ccccc1)[C@@H]2C(=O)OC (some centres not stated)	24.1 µM	41.7 µM	27 µM	64.9 µM	55.6 µM	–	28.2 µM	47.3 µM	–	–	–	–	–	–	–	–
N=C(N)SCCC(=O)CCSC(=N)N	> 100 µM	–	> 100 µM	> 100 µM	> 100 µM	–	–	> 100 µM	–	–	–	–	–	–	–	–
Cc1nnc2n(c1=O)CCN2C	> 100 µM	> 100 µM	> 100 µM	> 100 µM	> 100 µM	–	> 100 µM	> 100 µM	–	–	–	–	–	–	–	–
